In publication PMC5913971, “A Novel Piperazine-Based Drug Lead for Cryptosporidiosis from the Medicines for Malaria Venture Open-Access Malaria Box” (Antimicrobial Agents and Chemotherapy, 2018):
Where two headings read alike, the source gives them in different places.

Assays:
C. parvum Iowa isolate [1] = assay: Immunofluorescence assay for C. parvum growth inhibition in HCT-8 cells; type: cell-based, Cryptosporidium parvum; settings: read-out: C. parvum EC50 (95% CI)
Method: Inhibition of C. parvum growth was measured as described previously ([20]). Oocysts were excysted by treatment with 10 mM hydrochloric acid (10 min at 37°C), followed by exposure to 2 mM sodium taurocholate (Sigma-Aldrich) in PBS for 10 min at 16°C. Excysted oocysts were then added to >95% confluent HCT-8 cell monolayers in 384-well plates at a concentration of 5,500 Iowa isolate oocysts per well. For C. parvum field isolates, the inoculum required to yield an infection level similar to that produced by 5,500 Iowa isolate oocysts per well was determined and was used for subsequent assays of parasite inhibition. Compounds were added just before or 3 h after infection, and assay plates were incubated for 48 h postinfection at 37°C under 5% CO2. Wells were then washed three times with PBS containing 111 mM D-galactose, fixed with 4% paraformaldehyde in PBS for 15 min at room temperature, permeabilized with 0.25% Triton X-100 for 10 min at 37°C, washed three times with PBS with 0.1% Tween 20, and blocked with 4% bovine serum albumin (BSA) in PBS for 2 h at 37°C or 4°C overnight. Parasitophorous vacuoles were stained with 1.33 μg/ml of fluorescein-labeled Vicia villosa lectin (Vector Laboratories) diluted in 1% BSA in PBS with 0.1% Tween 20 for 1 h at 37°C, followed by the addition of Hoechst 33258 (AnaSpec) at a final concentration of 0.09 mM diluted in water for another 15 min at 37°C. Wells were then washed five times with PBS containing 0.1% Tween 20. A Nikon Eclipse TE2000 epifluorescence microscope with an automated stage was programmed using NIS-Elements Advanced Research software (Nikon, USA) to focus on the center of each well and take a 3-by-3 composite image using an EXi Blue fluorescence microscopy camera (QImaging, Canada) with a 20× objective (numerical aperture, 0.45). Nucleus and parasite images were exported separately as .tif files and were analyzed using macros developed on the ImageJ platform (National Institutes of Health) ([20]). The only modification from the published macro used to count parasites was that the lower size threshold for parasites was decreased from 16.5 to 4 pixels (1 pixel = 0.65 μm). Graphs were plotted, and half-maximal effective concentration (EC50) and 90% effective concentration (EC90) values were calculated using GraphPad Prism software, version 6.01. For every C. parvum field isolate experiment, a dose-response experiment against the C. parvum Iowa isolate was performed simultaneously as a reference.

C. parvum Iowa isolate [2] = assay: NOD SCID gamma (NSG) mouse model of chronic cryptosporidiosis, fecal qPCR; type: in vivo, NOD SCID gamma mice
Method: All NOD SCID gamma mouse studies were performed in compliance with animal care guidelines and were approved by the University of Vermont Institutional Animal Care and Use Committee. NOD SCID gamma mice with normal flora (NOD.Cg-Prkdc^scid Il2rg^tm1Wjl/SzJ) ([38]) were purchased from The Jackson Laboratory (Bar Harbor, ME, USA) and were housed for at least a week for acclimatization. At the age of 4 to 5 weeks, mice were infected with 10^5 C. parvum Iowa isolate oocysts. Fecal oocyst shedding is detected 6 days after infection using a quantitative PCR (qPCR assay), so treatment was started on day 7 after infection. Mice (4 per experimental group) were treated either orally (p.o.) with MMV665917 at 30 or 60 mg/kg BID, intraperitoneally (i.p.) with MMV665917 at 60 mg/kg BID, or p.o. with 1,000 mg/kg paromomycin BID. MMV665917 was suspended in DMSO, sonicated three times, for 30 s each time, to obtain a fine suspension, aliquoted, and stored at −80°C for <10 days. On the day of treatment, aliquots of MMV665917 diluted in DMSO were thawed, mixed well using a vortexer, diluted with 1% HPMC, sonicated as before (three times for 30 s each time), mixed well, and given to mice either p.o. or by i.p. injection. A final concentration of 5% DMSO was used in 100 μl of 1% HPMC per dose. For the additional Malaria Box compounds and compound variants tested, the doses were prepared in the same way, and the specific dosages tested are given in Table S3 in the supplemental material. Mice were treated for either 4 or 7 days, allowed to recover for a week, and then sacrificed. Oocyst shedding in feces was monitored throughout by qPCR, including time points while on treatment and while monitoring for relapsed infection following completion of treatment in Fig. 2A.

C. parvum = assay: Parasite persistence (time-kill) assay in HCT-8 cells; type: cell-based, Cryptosporidium parvum
Method: Excysted C. parvum oocysts were added to >90% confluent HCT-8 cells in 384-well plates. […] At ∼24 h (i.e., the time of compound addition) and at various time intervals thereafter, parasites were washed, fixed, permeabilized, stained, and imaged as for the C. parvum growth assay. For the extended-compound-exposure experiments, the medium and compound were replaced every 3 days. A separate 384-well plate was used for each time interval. Parasite numbers were normalized to host cell nucleus numbers and are expressed as the percentage of parasites per host cell nucleus. In order to fit parasite decay curves, the effect of drugs was isolated from expected changes in parasite numbers over time by expressing the number of parasites as the percentage of the number of parasites with the control, dimethyl sulfoxide (DMSO), for each time point. Exponential decay curves were fit using GraphPad Prism software, version 6.01, and curve validity was assessed using the replicates test.

[3] = Cryptosporidium parvum, HCT-8, Table S3, SAR of MMV665917
[4] = Cryptosporidium parvum, HCT-8, Table S1, confirmed screening hits
[5] = dose 50 mg/kg, interval 12 h, duration 4 days
[6] = Table S1, confirmed screening hits
[7] = dose 100 mg/kg, interval 24 h, duration 7 days

Work on `O=C(Nc1cccc(Cl)c1)N1CCN(c2ccc3nncn3n2)CC1` [Compound D-77, Clc1cccc(c1)NC(=O)N2CCN(CC2)c3ccc4nncn4n3] yielded an EC50 (C. parvum Iowa isolate [1]; [3]) of about 23700 nM.
For `O=C(Nc1ccc(Cl)cc1)N1CCN(c2ccc3nncn3n2)CC1` [Compound D-78, O=C(N1CCN(C2=NN3C(C=C2)=NN=C3)CC1)NC5=CC=C(Cl)C=C5], the EC50 (C. parvum Iowa isolate [1]; Table S3, SAR of MMV665917) was over 25000 nM.
With `O=S(=O)(c1ccc(Oc2ccccc2)cc1)N1CCN(c2ccc3nncn3n2)CC1` [Compound D-79, O=S(N1CCN(C2=NN3C(C=C2)=NN=C3)CC1)(C4=CC=C(OC5=CC=CC=C5)C=C4)=O] the EC50 (C. parvum Iowa isolate [1]; [3]) was 12000 nM.
`O=C(Nc1ccc(Cl)c(Cl)c1)N1CCN(c2nc3ccccc3[nH]2)CC1` [Compound D-80, O=C(N1CCN(C2=NC3=C(C=CC=C3)N2)CC1)NC4=CC=C(Cl)C(Cl)=C4] was tested, and the EC50 (C. parvum Iowa isolate [1]; [3]) was 17000 nM.
Work on `O=C(Nc1ccc(Cl)c(Cl)c1)N1CCN(CCn2cccn2)CC1` [Compound D-81, O=C(N1CCN(CCN2N=CC=C2)CC1)NC3=CC=C(Cl)C(Cl)=C3] yielded an EC50 (C. parvum Iowa isolate [1]; [3]) of over 25000 nM.
Work on `Cc1ccnc(NC(c2cccc(OCc3ccccc3)c2)c2ccc3cccnc3c2O)c1` (centres unmarked) [MMV000720, Cc1ccnc(NC(c2cccc(OCc3ccccc3)c2)c4ccc5cccnc5c4O)c1] yielded an EC50 (C. parvum Iowa isolate [1]; [4]) of 210 nM.
`Oc1c(CN2CCN(c3ccccc3F)CC2)cc(Br)c2cccnc12` [MMV000760, Oc1c(CN2CCN(CC2)c3ccccc3F)cc(Br)c4cccnc14] showed an EC50 (C. parvum Iowa isolate [1]; [4]) of 290 nM.
`CSc1ccccc1C(=O)Nc1nc(-c2ccccn2)cs1` [MMV001246, CSc1ccccc1C(=O)Nc2nc(cs2)c3ccccn3] was tested, and the NSG efficacy (C. parvum Iowa isolate [2]; [5]) was “No” and the EC50 (C. parvum Iowa isolate [1]; [4]) was 1800 nM.
`c1ccc(CNc2nc(NC3CCCC3)nc3ccccc23)cc1` [MMV006169 v2, C1CCC(C1)Nc1nc(NCc2ccccc2)c2c(n1)cccc2] was tested, and the NSG efficacy (C. parvum Iowa isolate [2]; [5]) was “No”.
`COc1ccc(Nc2nc(NCc3ccccc3Cl)c3ccccc3n2)cc1Cl` [MMV006169 v3, COc1ccc(cc1Cl)Nc1nc(NCc2ccccc2Cl)c2c(n1)cccc2] was tested, and the NSG efficacy (C. parvum Iowa isolate [2]; [5]) was “No”.
In the case of `c1ccc(CNc2nc(Nc3ccccc3)nc3ccccc23)cc1` [MMV006169, C(Nc1nc(Nc2ccccc2)nc3ccccc13)c4ccccc4], the NSG efficacy (C. parvum Iowa isolate [2]; [5]) is reported as “No” and the EC50 (C. parvum Iowa isolate [1]; [6]) is reported as 1500 nM.
`Cc1cc(=O)oc2c1ccc1oc(C(=O)c3ccccc3)c(C)c12` [MMV006753, CC1=CC(=O)Oc2c1ccc3oc(C(=O)c4ccccc4)c(C)c23] showed an EC50 (C. parvum Iowa isolate [1]; [4]) of 250 nM.
For `O=C1c2ccc3c4c(ccc(c24)C(=O)N1CCCCO)C(=O)N(CCCCO)C3=O` [MMV009085, OCCCCN1C(=O)c2ccc3C(=O)N(CCCCO)C(=O)c4ccc(C1=O)c2c34], the EC50 (C. parvum Iowa isolate [1]; [4]) was 2600 nM.
Compound `COc1cccc(Nc2nc(NCCO)c3ccccc3n2)c1` [MMV011944, n1c(NCCO)c2c(cccc2)nc1Nc3cccc(OC)c3] has an EC50 (C. parvum Iowa isolate [1]; [4]) of 3500 nM.
With `COc1ccc(C(=O)Nc2cc(C)nn2-c2nc3c(cnn3-c3cccc(C)c3)c(=O)[nH]2)c(OC)c1` [MMV403679 v1, c31c(cnn1-c2cc(ccc2)C)C(=O)NC(=N3)n4c(cc(n4)C)NC(=O)c5c(cc(cc5)OC)OC] the NSG efficacy (C. parvum Iowa isolate [2]; [7]) was “No”.
For `Cc1cccc(-n2ncc3c(=O)[nH]c(-n4nc(C)cc4NC(=O)C4CC4)nc32)c1` [MMV403679 v2, c31c(cnn1-c2cc(ccc2)C)C(=O)NC(=N3)n4c(cc(n4)C)NC(=O)C5CC5], the NSG efficacy (C. parvum Iowa isolate [2]; [7]) was “No”.
For `Cc1cccc(-n2ncc3c(=O)[nH]c(-n4nc(C)cc4NC(=O)C4CCCC4)nc32)c1` [MMV403679 v3, c31c(cnn1-c2cc(ccc2)C)C(=O)NC(=N3)n4c(cc(n4)C)NC(=O)C5CCCC5], the NSG efficacy (C. parvum Iowa isolate [2]; [7]) was “No”.
`Cc1cc(NC(=O)c2cc3ccccc3o2)n(-c2nc3c(cnn3-c3ccccc3)c(=O)[nH]2)n1` [MMV403679 v4, c31c(cnn1-c2ccccc2)C(=O)NC(=N3)n4c(cc(n4)C)NC(=O)c5oc6c(c5)cccc6] was tested, and the NSG efficacy (C. parvum Iowa isolate [2]; [7]) was “No”.
`Cc1cccc(-n2ncc3c(=O)[nH]c(-n4nc(C)cc4N)nc32)c1` [MMV403679 v5, c31c(cnn1-c2cc(ccc2)C)C(=O)NC(=N3)n4c(cc(n4)C)N] was tested, and the NSG efficacy (C. parvum Iowa isolate [2]; [7]) was “No”.
Compound `Cc1cccc(-n2ncc3c(=O)[nH]c(-n4nc(C)cc4NC(=O)c4cc5ccccc5o4)nc32)c1` [MMV403679, c1(c(cnn1c2cccc(C)c2)C(=O)N3)N=C3n4nc(C)cc4NC(=O)c5cc(cccc6)c6o5] has an EC50 (C. parvum Iowa isolate [1]; [6]) of 120 nM.
In the case of `Oc1c(C(Nc2ccccn2)c2cccc(Oc3ccccc3)c2)ccc2cccnc12` (centres unmarked) [MMV665814, Oc1c(ccc2cccnc12)C(Nc3ccccn3)c4cccc(Oc5ccccc5)c4], the NSG efficacy (C. parvum Iowa isolate [2]; [5]) is reported as “No” and the EC50 (C. parvum Iowa isolate [1]; [4]) is reported as 590 nM.
`O=C(Nc1ccc(Cl)c(Cl)c1)Nc1ccc(Cl)c(Cl)c1` [MMV665852, Clc1ccc(NC(=O)Nc2ccc(Cl)c(Cl)c2)cc1Cl] gave an EC50 (C. parvum Iowa isolate [1]; [4]) of 3400 nM.
For `O=C(Nc1nc(-c2ccccn2)cs1)c1ccccc1Br` [MMV665909, Brc1ccccc1C(=O)Nc2nc(cs2)c3ccccn3], the NSG efficacy (C. parvum Iowa isolate [2]; [5]) was “No” and the EC50 (C. parvum Iowa isolate [1]; [4]) was 3300 nM.
With `CN(C)c1ccc(C(O)(c2ccc(N(C)C)cc2)c2ccc(N(C)C)cc2)cc1` [MMV665941, CN(C)c1ccc(cc1)C(O)(c2ccc(cc2)N(C)C)c3ccc(cc3)N(C)C] the NSG efficacy (C. parvum Iowa isolate [2]; [5]) was “No” and the EC50 (C. parvum Iowa isolate [1]; [4]) was 830 nM.
For `COc1cccc(C(=O)NC(c2ccc(C)cc2)c2cc(Cl)c3cccnc3c2O)c1` (centres unmarked) [MMV665969, COc1cccc(c1)C(=O)NC(c2ccc(C)cc2)c3cc(Cl)c4cccnc4c3O], the NSG efficacy (C. parvum Iowa isolate [2]; [5]) was “No” and the EC50 (C. parvum Iowa isolate [1]; [4]) was 54 nM.
`COc1ccc(C(=O)NC(c2ccc(Cl)cc2Cl)c2cc(Cl)c3cccnc3c2O)cc1` (centres unmarked) [MMV666054, COc1ccc(cc1)C(=O)NC(c2ccc(Cl)cc2Cl)c3cc(Cl)c4cccnc4c3O] was tested, and the EC50 (C. parvum Iowa isolate [1]; [4]) was 810 nM.
In the case of `CC(=O)Oc1ccccc1C(=O)Nc1ncc([N+](=O)[O-])s1` [nitazoxanide], the “parasiticidal or parasitistatic for C. parvum” value (C. parvum) is reported as “parasitistatic”, the parasite persistence (C. parvum; highest nontoxic concentrations, added 24 h after infection) is reported as “parasites persist” and the “short-term efficacy on oocyst shedding in NSG mice” value (C. parvum Iowa isolate [2]; Fig. 2B, dose not given) is reported as “did not reduce oocyst shedding”.
